Active and inactive are the calls of the source. The rule behind the calls is not given here.
Assays:
[1] = biological target: Cruzipain (Trypanosoma cruzi) (UniProt P25779); assay: Inhibition of recombinant Trypanosoma cruzi cruzain at 100 uM using Z-phe-Arg-amidomethylcoumarin as substrate by fluorometric method relative to control
Trypanosoma brucei [2] = assay: Inhibition of recombinant Trypanosoma brucei rhodesain at 100 uM using Z-phe-Arg-amidomethylcoumarin as substrate by fluorometric method relative to control
[3] = Inhibition of recombinant Trypanosoma brucei rhodesain using Z-phe-Arg-amidomethylcoumarin as substrate by fluorometric method
Trypanosoma cruzi [4] = assay: Antitrypanosomal activity against Trypanosoma cruzi Tulahuen trypomastigote forms infected in mouse L929 cells up to 250 uM after 96 hrs by chlorophenol red-beta-D-galactopyranoside dye based assay; format: functional, cell-based
Trypanosoma cruzi [5] = assay: Antitrypanosomal activity against Trypanosoma cruzi Tulahuen trypomastigote forms infected in mouse L929 cells after 96 hrs by chlorophenol red-beta-D-galactopyranoside dye based assay; format: functional, cell-based; details: L929, 96 h
[6] = Cytotoxicity against mouse L929 cells after 96 hrs by alamar blue assay; format: cell-based
[7] = Selectivity index, ratio of CC50 for mouse L929 cells to IC50 for Trypanosoma cruzi Tulahuen trypomastigote forms infected in mouse L929 cells; format: toxicity, cell-based; details: read-out: Ratio CC50/IC50
Cruzipain [8] = biological target: T1, Cruzipain (Trypanosoma cruzi, UniProt P25779); assay: Inhibition of recombinant Trypanosoma cruzi cruzain using Z-phe-Arg-amidomethylcoumarin as substrate by fluorometric method
[9] = biological target: Cathepsin S (Homo sapiens) (UniProt P25774); assay: Inhibition of recombinant human cathepsin S at 100 uM using cbz-val-val-arg-7-amino-4-methylcoumarin as substrate measured for 15 mins by fluorescence assay relative to control
[10] = biological target: Cathepsin S (Homo sapiens) (UniProt P25774); assay: Inhibition of recombinant human cathepsin S at 100 uM using cbz-val-val-arg-7-amino-4-methylcoumarin as substrate preincubated for 5 mins followed by substrate addition measured for 15 mins by fluorescence assay relative to control
[11] = biological target: Cathepsin B (Rattus norvegicus) (UniProt P00787); assay: Inhibition of rat cathepsin B at 100 uM using cbz-phe-Arg-amidomethylcoumarin as substrate measured for 15 mins by fluorescence assay relative to control
[12] = biological target: Cathepsin B (Rattus norvegicus) (UniProt P00787); assay: Inhibition of rat cathepsin B at 100 uM using cbz-phe-Arg-amidomethylcoumarin as substrate preincubated for 5 mins followed by substrate addition measured for 15 mins by fluorescence assay relative to control
[13] = biological target: Cruzipain (Trypanosoma cruzi) (UniProt P25779); assay: Inhibition of recombinant Trypanosoma cruzi cruzain at 100 uM in AcOH/AcONA buffer using Z-phe-Arg-amidomethylcoumarin as substrate by fluorometric method relative to control
Trypanosoma brucei [14] = assay: Inhibition of recombinant Trypanosoma brucei rhodesain at 100 uM in AcOH/AcONA buffer using Z-phe-Arg-amidomethylcoumarin as substrate by fluorometric method relative to control
[15] = biological target: Cathepsin S (Homo sapiens) (UniProt P25774); assay: Inhibition of recombinant human cathepsin S at 1 uM using cbz-val-val-arg-7-amino-4-methylcoumarin as substrate measured for 15 mins by fluorescence assay relative to control
[16] = biological target: Cathepsin S (Homo sapiens) (UniProt P25774); assay: Inhibition of recombinant human cathepsin S at 1 uM using cbz-val-val-arg-7-amino-4-methylcoumarin as substrate preincubated for 5 mins followed by substrate addition measured for 15 mins by fluorescence assay relative to control
[17] = biological target: Cathepsin B (Rattus norvegicus) (UniProt P00787); assay: Inhibition of rat cathepsin B at 1 uM using cbz-phe-Arg-amidomethylcoumarin as substrate measured for 15 mins by fluorescence assay relative to control
[18] = biological target: Cathepsin B (Rattus norvegicus) (UniProt P00787); assay: Inhibition of rat cathepsin B at 1 uM using cbz-phe-Arg-amidomethylcoumarin as substrate preincubated for 5 mins followed by substrate addition measured for 15 mins by fluorescence assay relative to control
Cruzipain [19] = biological target: T1, Cruzipain; assay: Competitive inhibition of recombinant Trypanosoma cruzi cruzain in presence of varying levels of Z-phe-Arg-amidomethylcoumarin substrate by Lineweaver-Burk plot analysis
[20] = Inhibition of recombinant Trypanosoma brucei rhodesain in AcOH/AcONA buffer using Z-phe-Arg-amidomethylcoumarin as substrate by fluorometric method

Sequence of Cathepsin S (Homo sapiens) (P25774 115-331 limits assumed): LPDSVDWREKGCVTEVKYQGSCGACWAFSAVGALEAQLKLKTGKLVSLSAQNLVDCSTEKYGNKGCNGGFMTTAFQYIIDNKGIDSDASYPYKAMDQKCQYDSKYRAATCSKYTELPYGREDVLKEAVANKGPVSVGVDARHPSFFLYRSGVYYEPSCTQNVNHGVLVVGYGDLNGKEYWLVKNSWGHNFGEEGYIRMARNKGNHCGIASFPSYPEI
T1 sequence (P25779 whole entry): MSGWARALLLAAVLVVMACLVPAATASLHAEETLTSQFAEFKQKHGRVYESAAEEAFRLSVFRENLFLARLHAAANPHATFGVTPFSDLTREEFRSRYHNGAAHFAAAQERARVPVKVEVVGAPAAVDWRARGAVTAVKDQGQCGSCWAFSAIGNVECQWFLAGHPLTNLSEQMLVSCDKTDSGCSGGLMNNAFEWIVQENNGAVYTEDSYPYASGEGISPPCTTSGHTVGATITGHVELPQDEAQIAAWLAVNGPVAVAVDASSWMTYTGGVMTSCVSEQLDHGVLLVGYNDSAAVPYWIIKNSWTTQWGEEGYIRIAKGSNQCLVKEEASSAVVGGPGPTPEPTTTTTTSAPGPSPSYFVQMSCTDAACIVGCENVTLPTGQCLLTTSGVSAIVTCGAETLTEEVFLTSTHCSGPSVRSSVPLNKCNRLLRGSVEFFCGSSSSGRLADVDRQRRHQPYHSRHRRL
Sequence of Cathepsin B (Rattus norvegicus) (P00787 80-333 limits assumed): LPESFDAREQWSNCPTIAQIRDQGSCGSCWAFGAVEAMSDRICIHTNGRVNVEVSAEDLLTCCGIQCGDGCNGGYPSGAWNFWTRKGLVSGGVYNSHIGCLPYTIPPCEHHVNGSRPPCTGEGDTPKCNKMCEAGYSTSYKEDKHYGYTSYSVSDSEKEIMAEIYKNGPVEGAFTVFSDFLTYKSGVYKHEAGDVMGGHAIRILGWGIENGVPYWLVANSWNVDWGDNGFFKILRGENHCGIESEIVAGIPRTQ
Sequence of Cruzipain (Trypanosoma cruzi) (P25779 123-467 limits assumed): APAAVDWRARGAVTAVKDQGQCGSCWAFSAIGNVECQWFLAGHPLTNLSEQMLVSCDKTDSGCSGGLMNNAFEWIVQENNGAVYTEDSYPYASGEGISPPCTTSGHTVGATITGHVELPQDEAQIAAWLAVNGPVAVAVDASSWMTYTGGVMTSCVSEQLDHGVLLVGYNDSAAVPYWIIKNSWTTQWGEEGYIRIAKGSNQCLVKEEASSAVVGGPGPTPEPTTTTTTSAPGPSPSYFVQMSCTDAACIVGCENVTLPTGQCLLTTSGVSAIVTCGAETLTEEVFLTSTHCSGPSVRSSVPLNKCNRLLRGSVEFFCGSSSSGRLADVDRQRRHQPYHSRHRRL

Structure (SMILES)	inhibition [1]	inhibition (Trypanosoma brucei [2])	IC50 (Trypanosoma cruzi [5])	Activity (Trypanosoma cruzi [4])	CC50 at 96 h [6]	selectivity ratio [7]	further results
c1c[nH]c(CN2CCOCC2)c1	23.6%	66.7%	–	inactive	–	–	IC50 [3]: 55 µM
Clc1ccc2[nH]c(CNCc3ccccc3)cc2c1	4%	5%	25 µM	–	31 µM	1.2	–
CN1CCN(Cc2ccc[nH]2)CC1	10.9%	32.1%	–	inactive	–	–	–
c1cc(NCCCN2CCOCC2)ncn1	1%	5%	–	inactive	–	–	–
OCCN1CCN(c2ccnc3cc(Cl)ccc23)CC1	–	–	–	inactive	–	–	inhibition [13]: 42.6%; inhibition (Trypanosoma brucei [14]): 53%
c1ccc2c(c1)CCN(c1ccncn1)C2	15%	20%	3.1 µM	–	400 µM	128	–
c1ccc(CNCc2cc3ccccc3[nH]2)cc1	9%	8%	–	inactive	–	–	–
CC(C)C[C@H](NC(=O)[C@@H]1O[C@H]1C(=O)O)C(=O)NCCCCN=C(N)N	–	–	–	–	–	–	inhibition [15]: 100%; inhibition [16]: 100%; inhibition [17]: 99%; inhibition [18]: 100%
CN1CCN(c2ccncn2)CC1	5%	13%	–	inactive	–	–	–
c1c[nH]c(CNCCCN2CCOCC2)c1	0%	15.1%	–	inactive	–	–	–
O=C(CN1CCc2ccccc2C1)Nc1ccccc1	7.7%	19.1%	245 µM	–	375 µM	1.5	–
O=C(CNCCCN1CCOCC1)Nc1ccc(Cl)cc1	16.5%	21%	–	inactive	–	–	–
O=C(CN1CCc2ccccc2C1)Nc1ccc(Cl)cc1	18.2%	20.5%	64.2 µM	–	< 125 µM	< 1.9	–
NCCCNc1ccnc2cc(Cl)ccc12	–	–	–	inactive	–	–	inhibition [13]: 39%; inhibition (Trypanosoma brucei [14]): 53%
Cc1ccc(NC(=O)CNCCCN2CCOCC2)cc1	3.5%	13.1%	–	inactive	–	–	–
CN1CCN(CC(=O)Nc2ccc(Cl)cc2)CC1	28.5%	22.6%	–	inactive	–	–	–
CN1CCN(CC(=O)Nc2ccccc2)CC1	38.6%	7.4%	–	inactive	–	–	–
O=C(CNCCCN1CCOCC1)Nc1ccccc1	2.9%	7.4%	–	inactive	–	–	–
Cc1ccc(NC(=O)CN2CCN(C)CC2)cc1	0%	15.5%	–	inactive	–	–	–
Clc1ccc2[nH]c(CNC3CCCCC3)cc2c1	8%	4%	10.7 µM	–	12.5 µM	1.2	–
c1c[nH]c(CN2CCc3ccccc3C2)c1	3.2%	49.1%	–	inactive	–	–	–
c1ccc2[nH]c(CNCCCN3CCOCC3)cc2c1	4%	7%	–	inactive	–	–	–
Clc1ccc2[nH]c3c(NCCCN4CCOCC4)ncnc3c2c1	–	–	–	–	–	–	IC50 (Cruzipain [8]): 15 µM
O=C(Cn1ccnc1[N+](=O)[O-])NCc1ccccc1 [BENZNIDAZOLE]	–	–	3.8 µM	–	–	–	–
Cc1ccc(NC(=O)CN2CCc3ccccc3C2)cc1	15.3%	16.7%	83.3 µM	–	125 µM	1.5	–
c1ccc2[nH]c(CNC3CCCCC3)cc2c1	6%	8%	–	inactive	–	–	–
Clc1ccc2[nH]c(CNCCCN3CCOCC3)cc2c1	15%	1%	38.9 µM	–	75 µM	1.9	–

Now from value to molecule, other results behind:

inhibition [1]	inhibition (Trypanosoma brucei [2])	IC50 (Trypanosoma cruzi [5])	Structure (SMILES)	Activity (Trypanosoma cruzi [4])	CC50 at 96 h [6]	selectivity ratio [7]	further results
65%	71%	37.2 µM	Clc1ccc2c(NCc3ccccc3)ccnc2c1	–	46.5 µM	1.2	IC50 (Cruzipain [8]): 44 µM; IC50 [3]: 34.2 µM; inhibition [9]: 17%; inhibition [10]: 12%; inhibition [11]: 2%; inhibition [12]: 9%
55%	61%	–	O=C(CNc1ccnc2cc(Cl)ccc12)N1CCOCC1	inactive	–	–	IC50 [3]: 48 µM
60%	61%	–	OCCNc1ccnc2cc(Cl)ccc12	inactive	–	–	IC50 (Cruzipain [8]): 62 µM; IC50 [3]: 58 µM
67%	63%	–	OCCCNc1ccnc2cc(Cl)ccc12	inactive	–	–	IC50 (Cruzipain [8]): 28 µM; IC50 [3]: 72 µM; inhibition [9]: 14%; inhibition [10]: 4%; inhibition [11]: 8%; inhibition [12]: 5%
56%	61%	–	Clc1ccc2c(NCCN3CCOCC3)ccnc2c1	inactive	–	–	IC50 (Cruzipain [8]): 41 µM; IC50 [3]: 61 µM
88%	51%	67.7 µM	Clc1ccc2c(NCCCN3CCOCC3)ccnc2c1	–	123 µM	1.8	IC50 (Cruzipain [8]): 15 µM; Ki (Cruzipain [19]): 12.1 µM; inhibition [9]: 13%; inhibition [10]: 10%; inhibition [11]: 6%; inhibition [12]: 8%
–	–	77.5 µM	NCCNc1ccnc2cc(Cl)ccc12	–	< 194 µM	< 2.5	inhibition [13]: 44%; inhibition (Trypanosoma brucei [14]): 62%; IC50 [20]: 126 µM
43%	56%	57.6 µM	Clc1ccc2c(NCCN3CCCCC3)ccnc2c1	–	64.5 µM	1.1	–
53%	61%	38.2 µM	Clc1ccc2c(NCCCN3CCCCC3)ccnc2c1	–	61.5 µM	1.6	–
53%	49%	125 µM	CCCNc1ccnc2cc(Cl)ccc12	–	283 µM	2.3	–

Source: ChEMBL document CHEMBL3997824, “Synthesis and biological evaluation of potential inhibitors of the cysteine proteases cruzain and rhodesain designed by molecular simplification” (Bioorg Med Chem, 2017)
